Assay results as given in the supplement of paper PMC10307832.

How the values were obtained:
Experiment in all cases: relative viability (nuclei count vs DMSO), 5 days (fraction); higher = more cells survive
AZ505 + Foretinib = compound: C1CCC(CC1)N(CCNCCC2=C3C(=C(C=C2)O)NC(=O)CO3)C(=O)CCNCCC4=CC(=C(C=C4)Cl)Cl [AZ505] + COc1cc2c(Oc3ccc(NC(=O)C4(C(=O)Nc5ccc(F)cc5)CC4)cc3F)ccnc2cc1OCCCN1CCOCC1 [Foretinib] (partner 0.25 µM)
Method in brief: (§1)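 Each reported value is a median over duplicate plates. It expresses relative viability: treated-well nuclei count divided by vehicle-well nuclei count. Lung cancer cell lines in 1536-well plates were dosed by pin tool a day after seeding, alone with one drug or with a fixed anchor-drug dose plus five library-drug doses (not always all listed) in √10 steps, and nuclei were counted after 5 days.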

Dactolisib + OSI-027 = compound: Cn1c(=O)n(-c2ccc(C(C)(C)C#N)cc2)c2c3cc(-c4cnc5ccccc5c4)ccc3ncc21 [Dactolisib] + COc1cccc2cc(-c3nc([C@H]4CC[C@H](C(=O)O)CC4)n4ncnc(N)c34)[nH]c12 [OSI-027] (partner 0.5 µM)
Method in brief: as §1

Dactolisib + Lapatinib = compound: Cn1c(=O)n(-c2ccc(C(C)(C)C#N)cc2)c2c3cc(-c4cnc5ccccc5c4)ccc3ncc21 [Dactolisib] + CS(=O)(=O)CCNCc1ccc(-c2ccc3ncnc(Nc4ccc(OCc5cccc(F)c5)c(Cl)c4)c3c2)o1 [Lapatinib] (partner 2 µM)
Method in brief: as §1

Dactolisib + Pemetrexed = compound: Cn1c(=O)n(-c2ccc(C(C)(C)C#N)cc2)c2c3cc(-c4cnc5ccccc5c4)ccc3ncc21 [Dactolisib] + Nc1nc2[nH]cc(CCc3ccc(C(=O)N[C@@H](CCC(=O)O)C(=O)O)cc3)c2c(=O)[nH]1 [Pemetrexed] (partner 0.2 µM)
Method in brief: as §1

| Cell Line | relative viability (AZ505 + Foretinib; first compound 0.08 µM) | relative viability (AZ505 + Foretinib; first compound 0.253 µM) | relative viability (AZ505 + Foretinib; first compound 0.8 µM) | relative viability (AZ505 + Foretinib; first compound 2.53 µM) | relative viability (AZ505 + Foretinib; first compound 8 µM) | relative viability (Dactolisib + OSI-027; first compound 0.002 µM) | relative viability (Dactolisib + OSI-027; first compound 0.006325 µM) | relative viability (Dactolisib + OSI-027; first compound 0.02 µM) | relative viability (Dactolisib + OSI-027; first compound 0.06325 µM) | relative viability (Dactolisib + OSI-027; first compound 0.2 µM) | relative viability (Dactolisib + Lapatinib; first compound 0.002 µM) | relative viability (Dactolisib + Lapatinib; first compound 0.006325 µM) | relative viability (Dactolisib + Lapatinib; first compound 0.02 µM) | relative viability (Dactolisib + Lapatinib; first compound 0.06325 µM) | relative viability (Dactolisib + Lapatinib; first compound 0.2 µM) | relative viability (Dactolisib + Pemetrexed; first compound 0.002 µM) | relative viability (Dactolisib + Pemetrexed; first compound 0.006325 µM) | relative viability (Dactolisib + Pemetrexed; first compound 0.02 µM) | relative viability (Dactolisib + Pemetrexed; first compound 0.06325 µM) | relative viability (Dactolisib + Pemetrexed; first compound 0.2 µM) |
| --- | --- | --- | --- | --- | --- | --- | --- | --- | --- | --- | --- | --- | --- | --- | --- | --- | --- | --- | --- | --- |
| NCI-H838 | 0.983 | 1.01 | 0.994 | 0.965 | 1.01 | 0.424 | 0.477 | 0.317 | 0.252 | 0.274 | 0.983 | 0.717 | 0.463 | 0.249 | 0.224 | 0.25 | 0.227 | 0.264 | 0.203 | 0.165 |
| NCI-H1355 | 0.819 | 1.01 | 0.992 | 1 | 1.01 | 0.436 | 0.475 | 0.455 | 0.328 | 0.246 | 1.02 | 0.879 | 0.939 | 0.521 | 0.388 | 1.08 | 1.03 | 1.02 | 0.861 | 0.65 |
| NCI-H1395 | 0.978 | 0.943 | 0.899 | 0.999 | 1.07 | 0.666 | 0.646 | 0.709 | 0.647 | 0.521 | 1 | 0.918 | 0.966 | 0.708 | 0.545 | 0.537 | 0.883 | 0.705 | 0.722 | 0.521 |
| NCI-H1437 | 1.16 | 1.26 | 1.21 | 1.29 | 1.18 | 0.849 | 0.903 | 0.883 | 0.834 | 0.586 | 0.797 | 0.835 | 0.807 | 0.517 | 0.234 | 0.309 | 0.347 | 0.312 | 0.27 | 0.227 |
| NCI-H1563 | 0.928 | 0.965 | 0.902 | 0.866 | 0.93 | 0.746 | 0.772 | 0.685 | 0.648 | 0.598 | 0.939 | 0.892 | 0.816 | 0.72 | 0.582 | 0.797 | 0.751 | 0.755 | 0.628 | 0.512 |
| NCI-H1650 | 0.965 | 1.05 | 1.34 | 0.865 | 1.24 | 0.775 | 0.598 | 0.593 | 0.455 | 0.282 | 0.847 | 0.701 | 0.73 | 0.449 | 0.431 | 0.342 | 0.418 | 0.385 | 0.383 | 0.299 |
| NCI-H1651 | 0.771 | 0.843 | 0.804 | 0.603 | 0.84 | 0.783 | 0.665 | 0.639 | 0.421 | 0.323 | 0.84 | 0.788 | 0.643 | 0.35 | 0.303 | 0.53 | 0.654 | 0.533 | 0.329 | 0.299 |
